Measured values reported in US7598420B1, “Rasagiline formulations and processes for their preparation” (Teva Pharmaceutical Industries, Ltd., priority 2005, dated 2009).

Tests used:
[1] = tested on: monoamine oxidase enzyme Type-B (MAO-B); conditions: cited from earlier work
[2] = 80° C.-100° C., presence of a chloride ion source and low pH

| SMILES | MAO-B inhibitory activity [1] | degree of selectivity for MAO-B inhibition ([1]; compared with the corresponding racemic form) | chlorination of the triple bond to form chlorinated allyl aminoindans (2-chloro and cis-3-chloro) [2] |
| --- | --- | --- | --- |
| C#CCN[C@@H]1CCc2ccccc21 [(R)-PAI, N-propargyl-1(R)-aminoindan] | active MAO-B inhibitor | surprisingly higher than that of the corresponding racemic form |  |
| C#CCN[C@H]1CCc2ccccc21 [(S)-PAI] | extremely low MAO-B inhibitory activity |  |  |
| C#CCN[C@@H]1CCc2ccccc21.CS(=O)(=O)O [rasagiline mesylate, N-propargyl-1(R)-aminoindan mesylate] |  |  | susceptible to chlorination |
